These results are taken from ChEMBL document CHEMBL1127238, “The discovery of L-699,392, a novel potent and orally active leukotriene D4 receptor antagonist” (Bioorg Med Chem Lett, 1994).

The target of data set [1] is T1, Cysteinyl leukotriene receptor 1 (Cavia porcellus, UniProt Q2NNR5).
T1 sequence (Q2NNR5 whole entry): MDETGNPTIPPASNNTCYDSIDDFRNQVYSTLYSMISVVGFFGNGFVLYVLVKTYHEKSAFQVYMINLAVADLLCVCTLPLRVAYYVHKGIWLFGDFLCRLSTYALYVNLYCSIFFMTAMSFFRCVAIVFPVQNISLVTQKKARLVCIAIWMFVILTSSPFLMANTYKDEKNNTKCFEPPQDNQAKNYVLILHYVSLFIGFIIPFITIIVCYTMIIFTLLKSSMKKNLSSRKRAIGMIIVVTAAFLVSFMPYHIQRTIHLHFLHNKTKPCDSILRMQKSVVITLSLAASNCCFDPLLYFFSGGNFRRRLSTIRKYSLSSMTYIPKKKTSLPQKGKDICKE
Put plainly: Inhibitory activity against binding of [3H]LTD4 to Cysteinyl leukotriene D4 receptor in guinea pig lung membranes. It counts as cell membranes, Membrane.

Data set [2] can be described thus: Compound was tested for plasma clearance in rats after 5 mg/kg of intravenous dosing. Also noted: dose 5 mg/kg, route intravenous. To be noted: rat. The format is ADME, organism-based.
Data set [3] in a line: Apparent bioavailability in squirrel monkey was determined. The format is ADME, organism-based. Particulars: in vivo; read-out: Bioavailabiility.

Compound `C[C@H](CS[C@@H](CCc1ccccc1C(=O)c1ccccc1)c1cccc(/C=C/c2ccc3ccc(Cl)cc3n2)c1)C(=O)O` returned an IC50 in data set [1] of 4.3 nM. The clearance in data set [2] is 18 mL/min/kg.
In turn, `CC(=O)c1ccccc1CC[C@H](SC[C@@H](C)C(=O)O)c1cccc(/C=C/c2ccc3ccc(Cl)cc3n2)c1` gave an IC50 in data set [1] of 3 nM. Further, the clearance in data set [2] amounted to 11 mL/min/kg. In data set [3], the bioavailability came out at 52%.
With `C[C@H](CS[C@@H](CCc1ccccc1CO)c1cccc(/C=C/c2ccc3ccc(Cl)cc3n2)c1)C(=O)O`, in data set [1], the IC50 was determined as 3.1 nM. The same compound yielded a clearance in data set [2] of 5 mL/min/kg.
For `C[C@H](CS[C@@H](CCc1ccccc1C=O)c1cccc(/C=C/c2ccc3ccc(Cl)cc3n2)c1)C(=O)O` the same measures were 2 nM and 6 mL/min/kg.
For `COC(=O)c1cccc(CC[C@H](SC[C@@H](C)C(=O)O)c2cccc(/C=C/c3ccc4ccc(Cl)cc4n3)c2)c1` the same measures were 7 nM and 6 mL/min/kg.
Taken in the same sequence, the figures for `C[C@H](CS[C@@H](CCc1ccccc1CC(C)(C)O)c1cccc(/C=C/c2ccc3ccc(Cl)cc3n2)c1)C(=O)O` were 1 nM and 33 mL/min/kg.
`CC(=O)c1cccc(CC[C@H](SC[C@@H](C)C(=O)O)c2cccc(/C=C/c3ccc4ccc(Cl)cc4n3)c2)c1` displayed an IC50 in data set [1] of 5.9 nM. The compound also returned a clearance in data set [2] of 2 mL/min/kg.
For `CCC(=O)c1ccccc1CC[C@H](SC[C@@H](C)C(=O)O)c1cccc(/C=C/c2ccc3ccc(Cl)cc3n2)c1` the same measures were 3.7 nM and 13 mL/min/kg.
`C[C@H](CS[C@@H](CCc1cccc(CO)c1)c1cccc(/C=C/c2ccc3ccc(Cl)cc3n2)c1)C(=O)O` displayed an IC50 in data set [1] of 2.1 nM. In data set [2], the clearance worked out at 2.5 mL/min/kg.
In turn, `C[C@H](CS[C@@H](CCc1ccccc1C(C)(C)O)c1cccc(/C=C/c2ccc3ccc(Cl)cc3n2)c1)C(=O)O` yielded an IC50 in data set [1] of 2.7 nM. The compound also returned a clearance in data set [2] of 14 mL/min/kg.
Regarding `CCOC(=O)c1ccccc1CC[C@H](SC[C@@H](C)C(=O)O)c1cccc(/C=C/c2ccc3ccc(Cl)cc3n2)c1`, the IC50 in data set [1] turned out to be 3.7 nM. The clearance in data set [2] amounted to 4.8 mL/min/kg.

Broadly, the IC50 is the concentration needed to halve the response being measured. One may read the clearance as the rate of elimination divided by the concentration.
